Experimental data reported in US8834907B2, “Active nanocomposite materials and production method thereof” (Nanobiomatters, S.L., priority 2008, dated 2014).

Test system: Salmonella
Settings: used in suspension
Description: To evaluate the antimicrobial capacity of PLA films, 600 mg of film were weighed, for both control without clay and for the sample with antimicrobial clay, and placed into 10 mL of sterile culture medium. They were stored at 4° C. for four weeks, prior to inoculation with Salmonella spp.

**Q.** How did the “minimum bactericidal concentration (reducing the population to zero)” value turn out when `O=[N+]([O-])[O-].[Ag+]` [silver nitrate] was run?
**A.** around 100 ppm
